SMILES strings stand for the structures. Active and inactive are the calls of the source. No cut-off for these calls is given here.

Results on ten compounds are retold here after ChEMBL document CHEMBL2396533, “Γ-aminobutyric acid(C) (GABAC) selective antagonists derived from the bioisosteric modification of 4-aminocyclopent-1-enecarboxylic acid: amides and hydroxamates” (J Med Chem, 2013).

In assay [1] the target is T1, Gamma-aminobutyric acid receptor subunit rho-1 (Homo sapiens, UniProt P24046). Briefly: Antagonist activity at human recombinant GABAA rho1 receptor expressed in Xenopus laevis assessed as inhibition of GABA-induced chloride current production after 2 to 5 days by two-electrode voltage-clamp electrophysiological assay.
Assay [2] has as its target T2, GABA-A receptor; alpha-1/beta-2/gamma-2 (Homo sapiens) (UniProt P14867+P47870+P18507). The assay is described as follows: Agonist activity at human recombinant GABAAalpha1beta2gamma2L receptor expressed in Xenopus laevis assessed as induction of chloride current production at 300 uM after 2 to 5 days by two-electrode voltage-clamp electrophysiological assay relative to GABA.

For assay [3], the target named is T2, GABA-A receptor; alpha-1/beta-2/gamma-2 (Homo sapiens). The assay is described as follows: Antagonist activity at human recombinant GABAAalpha1beta2gamma2L receptor expressed in Xenopus laevis assessed as inhibition of GABA-induced chloride current production at 300 uM after 2 to 5 days by two-electrode voltage-clamp electrophysiological assay relative to control.

For assay [4], the target named is T1, Gamma-aminobutyric acid receptor subunit rho-1. Briefly: Antagonist activity at human recombinant GABAA rho1 receptor expressed in Xenopus laevis assessed as inhibition of GABA-induced chloride current production at 300 uM after 2 to 5 days by two-electrode voltage-clamp electrophysiological assay relative to control.

T1 sequence (P24046 whole entry): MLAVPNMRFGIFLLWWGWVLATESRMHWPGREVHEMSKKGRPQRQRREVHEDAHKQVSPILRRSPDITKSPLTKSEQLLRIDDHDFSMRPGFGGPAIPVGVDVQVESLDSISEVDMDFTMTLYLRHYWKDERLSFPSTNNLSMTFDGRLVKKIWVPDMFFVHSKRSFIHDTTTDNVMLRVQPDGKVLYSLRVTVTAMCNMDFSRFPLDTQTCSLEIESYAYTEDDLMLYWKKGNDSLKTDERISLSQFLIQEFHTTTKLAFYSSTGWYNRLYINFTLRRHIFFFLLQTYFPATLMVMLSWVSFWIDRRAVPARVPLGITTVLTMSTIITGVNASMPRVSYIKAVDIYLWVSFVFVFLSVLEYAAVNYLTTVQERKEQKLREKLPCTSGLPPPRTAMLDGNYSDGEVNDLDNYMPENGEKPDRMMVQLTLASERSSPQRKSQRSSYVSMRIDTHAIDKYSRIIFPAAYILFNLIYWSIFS

`NC1CC=C(C(=O)NO)C1` (racemic): in assay [1], the IC50 stood at 12.9 µM. In addition, the Activity in assay [2] is 4.3%.

`Cc1ccc(NC(=O)C2=CCC(N)C2)cc1` (racemic): the inhibition entry in assay [3] is “inactive”. Also, the result in assay [2] was inactive. In addition, the inhibition in assay [4] amounted to 11.3%.

As to `C=CCONC(=O)C1=CCC(N)C1` (racemic), in assay [1], the IC50 was determined as 115 µM. Also, the Activity in assay [2] is 1.7%.

On to `CCCNC(=O)C1=CCC(N)C1` (racemic), for which, in assay [1], the IC50 came to 570 µM. Further, the inhibition entry in assay [3] is “inactive”. Further, the outcome in assay [2] was inactive.

In the case of `CONC(=O)C1=CCC(N)C1` (racemic), the IC50 in assay [1] was found to be 81.5 µM. Moreover, the Activity in assay [2] worked out at 6.3%.

For the compound `CCONC(=O)C1=CCC(N)C1` (racemic), the IC50 in assay [1] amounted to 153 µM. In addition, the Activity in assay [2] was determined as 2.5%.

`CCCCCNC(=O)C1=CCC(N)C1` (racemic): the inhibition result in assay [3] is “inactive”. For the same compound, the result in assay [2] was inactive. The inhibition in assay [4] was 20.5%.

Turning to `NC1CC=C(C(=O)O)C1` (racemic), the IC50 in assay [1] is 6.6 µM. Also, the Activity in assay [2] is 59.7%.

With `CNC(=O)C1=CCC(N)C1` (racemic), in assay [1], the IC50 turned out to be 408 µM. Also, in assay [3], the inhibition result was “inactive”. For the same compound, the result in assay [2] was inactive.

With `NC(=O)C1=CCC(N)C1` (racemic), the IC50 in assay [1] came out at 9.6 µM. For the same compound, the inhibition in assay [3] turned out to be 23.3%.
